# Data as given in ChEMBL document CHEMBL5058645, “Data for DCP probe JNJ-6204” (2022).
# How the values were obtained:
# [1] = biological target: Tyrosine-protein kinase Tec (Homo sapiens) (UniProt P42680); test: Tec(h) activated Kinase panel; conditions: Compound concentration 1.0 uM, tested as the 2H-labelled form
# [2] = biological target: Serine/threonine-protein kinase Nek1 (Homo sapiens) (UniProt Q96PY6); test: NEK1(h) Kinase panel; conditions: Compound concentration 1.0 uM, tested as the 2H-labelled form
# [3] = biological target: Dual specificity mitogen-activated protein kinase kinase 3 (Homo sapiens) (UniProt P46734); test: MKK3(h) Kinase panel; conditions: Compound concentration 1.0 uM, tested as the 2H-labelled form
# [4] = biological target: Serine/threonine-protein kinase PAK 4 (Homo sapiens) (UniProt O96013); test: PAK4(h) Kinase panel; conditions: Compound concentration 1.0 uM, tested as the 2H-labelled form
# Chain of Serine/threonine-protein kinase PAK 4 (Homo sapiens) (O96013 whole entry, looked up): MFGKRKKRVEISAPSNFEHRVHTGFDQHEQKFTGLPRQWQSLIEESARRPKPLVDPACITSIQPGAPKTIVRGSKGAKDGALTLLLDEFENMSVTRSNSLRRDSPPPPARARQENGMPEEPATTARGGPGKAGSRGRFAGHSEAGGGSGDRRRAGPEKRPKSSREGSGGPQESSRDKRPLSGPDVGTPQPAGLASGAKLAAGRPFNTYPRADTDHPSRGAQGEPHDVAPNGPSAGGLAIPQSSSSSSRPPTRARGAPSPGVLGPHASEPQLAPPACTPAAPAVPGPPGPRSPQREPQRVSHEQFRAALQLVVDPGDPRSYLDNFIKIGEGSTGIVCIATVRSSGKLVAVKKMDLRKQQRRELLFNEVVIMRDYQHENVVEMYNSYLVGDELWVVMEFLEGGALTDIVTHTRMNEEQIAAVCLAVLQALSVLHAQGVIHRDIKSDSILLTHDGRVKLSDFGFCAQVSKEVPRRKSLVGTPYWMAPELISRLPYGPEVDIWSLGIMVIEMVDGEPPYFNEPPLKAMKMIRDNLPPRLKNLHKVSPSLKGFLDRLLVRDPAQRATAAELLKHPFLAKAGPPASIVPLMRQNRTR
# [5] = biological target: Mu-type opioid receptor (Homo sapiens) (UniProt P35372); conditions: Compound concentration 10.0 uM, tested as the 2H-labelled form
# [6] = biological target: Tyrosine-protein kinase Fyn (Homo sapiens) (UniProt P06241); test: Fyn(h) Kinase panel; conditions: Compound concentration 1.0 uM, tested as the 2H-labelled form
# [7] = biological target: Serine/threonine-protein kinase Nek11 (Homo sapiens) (UniProt Q8NG66); test: NEK11(h) Kinase panel; conditions: Compound concentration 1.0 uM, tested as the 2H-labelled form
# [8] = biological target: Dual specificity mitogen-activated protein kinase kinase 1 (Homo sapiens) (UniProt Q02750); test: MEK1(h) Kinase panel; conditions: Compound concentration 1.0 uM, tested as the 2H-labelled form
# [9] = biological target: 5-hydroxytryptamine receptor 7 (Homo sapiens) (UniProt P34969); conditions: Compound concentration 10.0 uM, tested as the 2H-labelled form
# [10] = biological target: Inhibitor of nuclear factor kappa-B kinase subunit epsilon (Homo sapiens) (UniProt Q14164); test: IKKepsilon(h) Kinase panel; conditions: Compound concentration 1.0 uM, tested as the 2H-labelled form
# [11] = biological target: Dual specificity tyrosine-phosphorylation-regulated kinase 2 (Homo sapiens) (UniProt Q92630); test: DYRK2(h) Kinase panel; conditions: Compound concentration 1.0 uM, tested as the 2H-labelled form
# Chain of Dual specificity tyrosine-phosphorylation-regulated kinase 2 (Homo sapiens) (Q92630 whole entry, the tested form may be a part): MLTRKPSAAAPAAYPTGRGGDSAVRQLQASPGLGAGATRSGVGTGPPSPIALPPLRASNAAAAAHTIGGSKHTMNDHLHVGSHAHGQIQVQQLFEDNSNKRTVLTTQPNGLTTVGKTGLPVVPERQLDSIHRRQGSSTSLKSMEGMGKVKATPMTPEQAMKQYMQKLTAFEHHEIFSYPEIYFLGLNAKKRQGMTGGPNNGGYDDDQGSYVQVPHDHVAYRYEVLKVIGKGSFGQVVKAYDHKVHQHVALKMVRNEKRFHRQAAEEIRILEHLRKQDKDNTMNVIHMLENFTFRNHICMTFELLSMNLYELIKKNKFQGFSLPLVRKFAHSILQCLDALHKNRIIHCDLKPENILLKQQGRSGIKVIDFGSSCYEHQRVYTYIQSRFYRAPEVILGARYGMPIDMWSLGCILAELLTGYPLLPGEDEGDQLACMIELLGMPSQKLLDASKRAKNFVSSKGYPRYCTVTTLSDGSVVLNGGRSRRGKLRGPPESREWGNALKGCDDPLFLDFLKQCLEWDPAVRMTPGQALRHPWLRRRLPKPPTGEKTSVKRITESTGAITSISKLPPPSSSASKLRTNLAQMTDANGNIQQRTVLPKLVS
# [12] = biological target: Phosphatidylinositol 4-phosphate 3-kinase C2 domain-containing subunit alpha (Homo sapiens) (UniProt O00443); test: PI3KC2a(h) Kinase panel; conditions: Compound concentration 1.0 uM, tested as the 2H-labelled form
# Chain of Phosphatidylinositol 4-phosphate 3-kinase C2 domain-containing subunit alpha (Homo sapiens) (O00443 whole entry, the tested form may be a part): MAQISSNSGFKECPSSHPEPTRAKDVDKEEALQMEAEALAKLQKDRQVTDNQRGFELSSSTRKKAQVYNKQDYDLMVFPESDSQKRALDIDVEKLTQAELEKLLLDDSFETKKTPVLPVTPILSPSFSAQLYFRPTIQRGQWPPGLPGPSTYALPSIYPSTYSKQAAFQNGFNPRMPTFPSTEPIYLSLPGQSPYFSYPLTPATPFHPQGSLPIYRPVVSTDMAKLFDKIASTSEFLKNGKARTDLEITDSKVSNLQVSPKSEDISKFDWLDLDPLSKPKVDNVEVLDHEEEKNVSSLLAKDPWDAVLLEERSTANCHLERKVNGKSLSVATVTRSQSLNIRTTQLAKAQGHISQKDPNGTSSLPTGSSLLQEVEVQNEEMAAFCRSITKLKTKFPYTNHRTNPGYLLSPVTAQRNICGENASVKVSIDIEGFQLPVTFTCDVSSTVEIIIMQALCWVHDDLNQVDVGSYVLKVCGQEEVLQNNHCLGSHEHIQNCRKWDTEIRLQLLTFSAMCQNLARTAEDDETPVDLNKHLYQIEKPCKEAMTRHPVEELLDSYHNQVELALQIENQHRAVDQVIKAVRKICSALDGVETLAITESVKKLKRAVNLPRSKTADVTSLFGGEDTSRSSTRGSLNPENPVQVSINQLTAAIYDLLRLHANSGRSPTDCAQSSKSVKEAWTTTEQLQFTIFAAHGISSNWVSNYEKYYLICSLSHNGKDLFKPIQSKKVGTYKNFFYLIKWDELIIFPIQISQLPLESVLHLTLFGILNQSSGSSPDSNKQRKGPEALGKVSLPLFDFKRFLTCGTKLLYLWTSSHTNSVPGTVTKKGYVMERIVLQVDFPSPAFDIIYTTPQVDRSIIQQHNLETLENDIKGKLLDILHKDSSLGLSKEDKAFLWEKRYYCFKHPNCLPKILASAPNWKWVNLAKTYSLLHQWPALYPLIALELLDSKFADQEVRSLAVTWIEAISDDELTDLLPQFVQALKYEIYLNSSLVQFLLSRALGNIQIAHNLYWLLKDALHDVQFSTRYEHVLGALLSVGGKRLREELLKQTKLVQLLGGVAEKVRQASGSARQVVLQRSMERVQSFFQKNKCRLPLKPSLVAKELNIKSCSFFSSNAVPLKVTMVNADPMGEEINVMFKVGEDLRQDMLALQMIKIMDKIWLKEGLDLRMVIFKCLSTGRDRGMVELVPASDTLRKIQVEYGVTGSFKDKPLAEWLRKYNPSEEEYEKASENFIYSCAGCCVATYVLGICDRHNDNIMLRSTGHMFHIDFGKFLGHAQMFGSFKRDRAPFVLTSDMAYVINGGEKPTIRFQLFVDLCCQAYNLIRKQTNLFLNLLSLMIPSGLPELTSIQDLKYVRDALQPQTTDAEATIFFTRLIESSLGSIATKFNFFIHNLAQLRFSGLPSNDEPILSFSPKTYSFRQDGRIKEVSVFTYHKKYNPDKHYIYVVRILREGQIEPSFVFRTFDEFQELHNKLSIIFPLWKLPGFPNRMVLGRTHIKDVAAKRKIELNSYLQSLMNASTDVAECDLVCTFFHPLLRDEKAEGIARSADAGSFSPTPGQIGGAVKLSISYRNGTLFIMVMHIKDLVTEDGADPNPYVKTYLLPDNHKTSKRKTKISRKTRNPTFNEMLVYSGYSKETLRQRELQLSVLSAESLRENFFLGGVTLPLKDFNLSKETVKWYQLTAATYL
# [13] = biological target: Serine/threonine-protein kinase PLK4 (Homo sapiens) (UniProt O00444); test: Plk4(h) Kinase panel; conditions: Compound concentration 1.0 uM, tested as the 2H-labelled form
# [14] = biological target: Dual specificity protein kinase CLK3 (Homo sapiens) (UniProt P49761); test: CLK3(h) Kinase panel; conditions: Compound concentration 1.0 uM, tested as the 2H-labelled form
# [15] = biological target: Cyclin-dependent kinase 1 (Homo sapiens) (UniProt P06493); test: CDK1/cyclinB(h) Kinase panel; conditions: Compound concentration 1.0 uM, tested as the 2H-labelled form
# [16] = biological target: NUAK family SNF1-like kinase 1 (Homo sapiens) (UniProt O60285); test: ARK5(h) Kinase panel; conditions: Compound concentration 1.0 uM, tested as the 2H-labelled form
# Rattus norvegicus = organism: Rattus norvegicus; conditions: Compound concentration 10.0 uM, tested as the 2H-labelled form
# [17] = biological target: SRSF protein kinase 2 (Homo sapiens) (UniProt P78362); test: SRPK2(h) Kinase panel; conditions: Compound concentration 1.0 uM, tested as the 2H-labelled form
# [18] = biological target: Tyrosine-protein kinase Fgr (Homo sapiens) (UniProt P09769); test: Fgr(h) Kinase panel; conditions: Compound concentration 1.0 uM, tested as the 2H-labelled form
# [19] = biological target: Mitogen-activated protein kinase kinase kinase 21 (Homo sapiens) (UniProt Q5TCX8); test: MLK4(h) Kinase panel; conditions: Compound concentration 1.0 uM, tested as the 2H-labelled form
# [20] = biological target: Serine/threonine-protein kinase TAO1 (Homo sapiens) (UniProt Q7L7X3); test: TAO1(h) Kinase panel; conditions: Compound concentration 1.0 uM, tested as the 2H-labelled form
# [21] = biological target: Tyrosine-protein kinase ABL1 (Homo sapiens) (UniProt P00519); test: Abl(h) Kinase panel; conditions: Compound concentration 1.0 uM, tested as the 2H-labelled form
# [22] = biological target: Serine/threonine-protein kinase haspin (Homo sapiens) (UniProt Q8TF76); test: Haspin(h) Kinase panel; conditions: Compound concentration 1.0 uM, tested as the 2H-labelled form
# [23] = biological target: Alpha-1D adrenergic receptor (Homo sapiens) (UniProt P25100); conditions: Compound concentration 10.0 uM, tested as the 2H-labelled form
# [24] = biological target: Proto-oncogene tyrosine-protein kinase receptor Ret (Homo sapiens) (UniProt P07949); test: Ret(h) Kinase panel; conditions: Compound concentration 1.0 uM, tested as the 2H-labelled form
# [25] = biological target: Serine/threonine-protein kinase D2 (Homo sapiens) (UniProt Q9BZL6); test: PKD2(h) Kinase panel; conditions: Compound concentration 1.0 uM, tested as the 2H-labelled form
# [26] = biological target: Cell division cycle 7-related protein kinase (Homo sapiens) (UniProt O00311); test: Cdc7/cyclinB1(h) Kinase panel; conditions: Compound concentration 1.0 uM, tested as the 2H-labelled form
# [27] = biological target: Sigma intracellular receptor 2 (Homo sapiens) (UniProt Q5BJF2); conditions: Compound concentration 10.0 uM, tested as the 2H-labelled form
# Chain of Sigma intracellular receptor 2 (Homo sapiens) (Q5BJF2 whole entry): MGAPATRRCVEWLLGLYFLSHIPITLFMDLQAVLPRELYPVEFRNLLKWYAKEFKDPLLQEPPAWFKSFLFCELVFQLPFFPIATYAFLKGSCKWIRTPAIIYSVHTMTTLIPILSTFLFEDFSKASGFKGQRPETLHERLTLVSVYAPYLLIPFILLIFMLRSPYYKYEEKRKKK
# [28] = biological target: 5-hydroxytryptamine receptor 2B (Homo sapiens) (UniProt P41595); conditions: Compound concentration 10.0 uM, tested as the 2H-labelled form
# [29] = biological target: SNF-related serine/threonine-protein kinase (Homo sapiens) (UniProt Q9NRH2); test: SNRK(h) Kinase panel; conditions: Compound concentration 1.0 uM, tested as the 2H-labelled form
# [30] = biological target: Aurora kinase A (Homo sapiens) (UniProt O14965); test: Aurora-A(h) Kinase panel; conditions: Compound concentration 1.0 uM, tested as the 2H-labelled form
# [31] = biological target: Protein kinase C theta type (Homo sapiens) (UniProt Q04759); test: PKCtheta (h) Kinase panel; conditions: Compound concentration 1.0 uM, tested as the 2H-labelled form
# [32] = biological target: Homeodomain-interacting protein kinase 4 (Homo sapiens) (UniProt Q8NE63); test: HIPK4(h) Kinase panel; conditions: Compound concentration 1.0 uM, tested as the 2H-labelled form
# [33] = biological target: Cyclin-dependent kinase 2 (Homo sapiens) (UniProt P24941); test: CDK2/cyclinE(h) Kinase panel; conditions: Compound concentration 1.0 uM, tested as the 2H-labelled form
# [34] = biological target: Alpha-1B adrenergic receptor (Homo sapiens) (UniProt P35368); conditions: Compound concentration 10.0 uM, tested as the 2H-labelled form
# [35] = biological target: Homeodomain-interacting protein kinase 1 (Homo sapiens) (UniProt Q86Z02); test: HIPK1(h) Kinase panel; conditions: Compound concentration 1.0 uM, tested as the 2H-labelled form
# [36] = biological target: Mitogen-activated protein kinase kinase kinase 9 (Homo sapiens) (UniProt P80192); test: MLK1(h) Kinase panel; conditions: Compound concentration 1.0 uM, tested as the 2H-labelled form
# [37] = biological target: Tau-tubulin kinase 2 (Homo sapiens) (UniProt Q6IQ55); test: TTBK2(h) Kinase panel; conditions: Compound concentration 1.0 uM, tested as the 2H-labelled form
# [38] = biological target: [Pyruvate dehydrogenase (acetyl-transferring)] kinase isozyme 2, mitochondrial (Homo sapiens) (UniProt Q15119); test: PDHK2(h) Kinase panel; conditions: Compound concentration 1.0 uM, tested as the 2H-labelled form
# [39] = biological target: TRAF2 and NCK-interacting protein kinase (Homo sapiens, UniProt Q9UKE5); test: TNIK(h) Kinase panel; conditions: Compound concentration 1.0 uM, tested as the 2H-labelled form
# Chain of TRAF2 and NCK-interacting protein kinase (Q9UKE5 whole entry, looked up): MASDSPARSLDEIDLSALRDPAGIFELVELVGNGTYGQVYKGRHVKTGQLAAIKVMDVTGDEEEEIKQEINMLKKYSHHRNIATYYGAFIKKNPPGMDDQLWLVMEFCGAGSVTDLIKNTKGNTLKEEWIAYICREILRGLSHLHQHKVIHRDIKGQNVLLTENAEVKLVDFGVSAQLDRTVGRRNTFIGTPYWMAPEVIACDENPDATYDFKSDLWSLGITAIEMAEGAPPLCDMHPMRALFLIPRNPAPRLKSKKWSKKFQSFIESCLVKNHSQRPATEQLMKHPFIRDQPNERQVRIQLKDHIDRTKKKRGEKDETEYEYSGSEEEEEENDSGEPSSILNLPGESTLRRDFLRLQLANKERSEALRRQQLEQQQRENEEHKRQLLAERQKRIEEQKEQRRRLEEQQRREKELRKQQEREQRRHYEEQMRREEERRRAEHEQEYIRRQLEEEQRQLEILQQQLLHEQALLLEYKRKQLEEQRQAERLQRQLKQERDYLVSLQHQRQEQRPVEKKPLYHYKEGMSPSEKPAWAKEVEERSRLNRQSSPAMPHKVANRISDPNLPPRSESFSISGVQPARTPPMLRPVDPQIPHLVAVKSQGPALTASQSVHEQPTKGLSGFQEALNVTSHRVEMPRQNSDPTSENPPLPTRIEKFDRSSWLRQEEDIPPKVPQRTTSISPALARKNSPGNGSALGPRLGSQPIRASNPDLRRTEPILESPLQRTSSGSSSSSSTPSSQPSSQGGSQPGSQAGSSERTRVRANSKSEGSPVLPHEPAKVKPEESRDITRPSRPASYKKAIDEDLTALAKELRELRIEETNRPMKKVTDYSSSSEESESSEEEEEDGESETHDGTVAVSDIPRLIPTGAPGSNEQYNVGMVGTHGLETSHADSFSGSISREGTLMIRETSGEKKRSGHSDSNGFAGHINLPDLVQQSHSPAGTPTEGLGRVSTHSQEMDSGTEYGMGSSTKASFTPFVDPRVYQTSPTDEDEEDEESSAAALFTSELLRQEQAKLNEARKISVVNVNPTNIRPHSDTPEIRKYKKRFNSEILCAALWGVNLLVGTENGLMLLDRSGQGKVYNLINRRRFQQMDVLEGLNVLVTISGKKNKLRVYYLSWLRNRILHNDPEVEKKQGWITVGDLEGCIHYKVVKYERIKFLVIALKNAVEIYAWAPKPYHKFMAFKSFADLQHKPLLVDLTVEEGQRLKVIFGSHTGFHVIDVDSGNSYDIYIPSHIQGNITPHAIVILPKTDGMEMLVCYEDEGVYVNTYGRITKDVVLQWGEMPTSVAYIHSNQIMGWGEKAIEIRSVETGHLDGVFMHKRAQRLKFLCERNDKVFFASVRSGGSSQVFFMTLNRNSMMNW
# [40] = biological target: Cyclin-dependent kinase 6 (Homo sapiens) (UniProt Q00534); test: CDK6/cyclinD3(h) Kinase panel; conditions: Compound concentration 1.0 uM, tested as the 2H-labelled form
# [41] = biological target: Serine/threonine-protein kinase tousled-like 2 (Homo sapiens) (UniProt Q86UE8); test: TLK2(h) Kinase panel; conditions: Compound concentration 1.0 uM, tested as the 2H-labelled form
# [42] = biological target: Calcium/calmodulin-dependent protein kinase type 1G (Homo sapiens) (UniProt Q96NX5); test: CaMKIgamma(h) Kinase panel; conditions: Compound concentration 1.0 uM, tested as the 2H-labelled form
# [43] = biological target: Calcium/calmodulin-dependent protein kinase type II subunit beta (Homo sapiens) (UniProt Q13554); test: CaMKIIbeta(h) Kinase panel; conditions: Compound concentration 1.0 uM, tested as the 2H-labelled form
# Chain of Calcium/calmodulin-dependent protein kinase type II subunit beta (Homo sapiens) (Q13554 whole entry): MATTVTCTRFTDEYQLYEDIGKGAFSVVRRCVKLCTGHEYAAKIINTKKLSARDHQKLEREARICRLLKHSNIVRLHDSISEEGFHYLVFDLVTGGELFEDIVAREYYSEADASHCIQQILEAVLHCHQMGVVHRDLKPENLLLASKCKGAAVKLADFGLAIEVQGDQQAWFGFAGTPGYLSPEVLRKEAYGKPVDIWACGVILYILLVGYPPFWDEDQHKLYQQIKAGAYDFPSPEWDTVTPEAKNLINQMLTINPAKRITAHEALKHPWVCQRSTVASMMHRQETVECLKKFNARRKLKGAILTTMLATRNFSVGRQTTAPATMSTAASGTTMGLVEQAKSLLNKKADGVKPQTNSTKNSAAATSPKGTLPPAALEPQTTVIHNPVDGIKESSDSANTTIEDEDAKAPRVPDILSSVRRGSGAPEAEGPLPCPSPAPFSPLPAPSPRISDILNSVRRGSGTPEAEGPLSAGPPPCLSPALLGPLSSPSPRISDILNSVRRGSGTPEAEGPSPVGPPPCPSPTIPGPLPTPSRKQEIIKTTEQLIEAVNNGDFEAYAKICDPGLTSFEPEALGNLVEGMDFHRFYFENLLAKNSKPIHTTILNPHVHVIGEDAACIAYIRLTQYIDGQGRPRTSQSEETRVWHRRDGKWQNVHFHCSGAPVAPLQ
# [44] = biological target: Serine/threonine-protein kinase PAK 6 (Homo sapiens) (UniProt Q9NQU5); test: PAK6(h) Kinase panel; conditions: Compound concentration 1.0 uM, tested as the 2H-labelled form
# [45] = biological target: Histamine H4 receptor (Homo sapiens) (UniProt Q9H3N8); conditions: Compound concentration 10.0 uM, tested as the 2H-labelled form
# [46] = biological target: STE20/SPS1-related proline-alanine-rich protein kinase (Homo sapiens) (UniProt Q9UEW8); test: STK39(h) Kinase panel; conditions: Compound concentration 1.0 uM, tested as the 2H-labelled form
# [47] = biological target: Ephrin type-B receptor 2 (Homo sapiens) (UniProt P29323); test: EphB2(h) Kinase panel; conditions: Compound concentration 1.0 uM, tested as the 2H-labelled form
# [48] = biological target: Serine/threonine-protein kinase N1 (Homo sapiens) (UniProt Q16512); test: PRK1(h) Kinase panel; conditions: Compound concentration 1.0 uM, tested as the 2H-labelled form
# [49] = biological target: Serine/threonine-protein kinase WNK1 (Homo sapiens) (UniProt Q9H4A3); test: WNK1(h) Kinase panel; conditions: Compound concentration 1.0 uM, tested as the 2H-labelled form
# [50] = biological target: Protein kinase C eta type (Homo sapiens) (UniProt P24723); test: PKCeta (h) Kinase panel; conditions: Compound concentration 1.0 uM, tested as the 2H-labelled form
smiles,measurement,setting,value
CC1(C)Cn2nc(-c3ccc(F)cn3)c(-c3ccnc4[nH]ncc34)c2CO1,inhibition,[1],29%
same,inhibition,[2],5%
same,inhibition,[3],7%
same,inhibition,[4],-5%
same,inhibition,[5],-6.9%
same,inhibition,[6],20%
same,inhibition,[7],12%
same,inhibition,[8],4%
same,inhibition,[9],-3.57%
same,inhibition,[10],-1%
same,inhibition,[11],0%
same,inhibition,[12],-2%
same,inhibition,[13],16%
same,inhibition,[14],-9%
same,inhibition,[15],-8%
same,inhibition,[16],1%
same,inhibition,Rattus norvegicus,50.9%
same,inhibition,[17],-8%
same,inhibition,[18],7%
same,inhibition,[19],20%
same,inhibition,[20],-5%
same,inhibition,[21],-1%
same,inhibition,[22],9%
same,inhibition,[23],8.27%
same,inhibition,[24],14%
same,inhibition,[25],5%
same,inhibition,[26],10%
same,inhibition,[27],-3%
same,inhibition,[28],6.01%
same,inhibition,[29],4%
same,inhibition,[30],-6%
same,inhibition,[31],9%
same,inhibition,[32],8%
same,inhibition,[33],7%
same,inhibition,[34],1.82%
same,inhibition,[35],3%
same,inhibition,[36],-3%
same,inhibition,[37],0%
same,inhibition,[38],26%
same,inhibition,[39],50%
same,inhibition,[40],-7%
same,inhibition,[41],12%
same,inhibition,[42],4%
same,inhibition,[43],18%
same,inhibition,[44],5%
same,inhibition,[45],24.7%
same,inhibition,[46],11%
same,inhibition,[47],3%
same,inhibition,[48],9%
same,inhibition,[49],7%
same,inhibition,[50],19%
